The text below walks through data of patent US9504671B2, “Pharmaceutical compositions of spiro-oxindole compound for topical administration and their use as therapeutic agents” (Xenon Pharmaceuticals Inc., priority 2010, dated 2016).

A short description of data set [1]: systemic plasma concentration after topical or oral dosing in CCI rats (HPLC/MS/MS). The data set is classed as in vivo, male Sprague Dawley rats. Particulars: 8% (w/w) topical vs 25 mg/Kg oral, blood 10-15 minutes after efficacy time points, p<0.0001. The method, then:
Blood samples were taken from the same animals immediately after withdrawal threshold measurements using the following procedure at approximately 10-15 minutes after their respective efficacy time points. The rats were bled by jugular vein puncture while under anaesthesia. The time at which each blood sample was drawn, relative to the time of dosing, was recorded. Each blood sample (˜150 μL) was collected into a heparin-coated, labelled microvette tube containing 10 μL of heparin (100 Units) and placed on ice immediately. The blood samples were centrifuged at 4° C. to separate the plasma. The plasma was transferred to labelled tubes and snap-frozen in liquid nitrogen for storage at −80° C. At the time of analysis, the plasma was thawed and extracted using solid phase extraction, and the plasma drug concentration was quantified by HPLC/MS/MS.

For data set [2], the system named is CCI-induced neuropathic pain model. Briefly: time course of efficacy in neuropathic pain model, Chronic Constriction Injury, von Frey. Format: in vivo, Sprague-Dawley rats. The procedure: Neuropathic pain is characterized by spontaneous pain and stimulus-evoked allodynia and hyperalgesia. Pharmaceutical compositions of the invention were evaluated in Chronic Constriction Injury model using Sprague-Dawley rats as described below.
An approximately 3 cm incision was made through the skin and the fascia at the mid thigh level of a rat's left hind leg using a no. 10 scalpel blade. The left sciatic nerve was exposed via blunt dissection through the biceps femoris with care to minimize haemorrhagia. Four loose ligatures were tied along the sciatic nerve using four chromic gut sutures at intervals of 1 mm to 2 mm apart. The tension of the loose ligatures was tight enough to induce slight constriction of the sciatic nerve when viewed under a dissection microscope at a magnification of 4 fold. As sham controls, the right sciatic nerve was exposed and manipulated in the same manner as described above, except sutures were not tied onto the nerve. Antibacterial ointment was applied directly into the wound, and the muscle was closed using sterilized sutures. Betadine® was applied onto the muscle and its surroundings, followed by skin closure with surgical clips.
A painful neuropathy was allowed to develop for at least 14 days in the ipsilateral leg as determined by lower paw withdrawal thresholds to a mechanical stimulus. Only those with significant hyperalgesia, as determined by reduced threshold of paw withdrawal to the von Frey filament, measured in grams, were enrolled in the study.
The response thresholds of animals to tactile stimuli were measured using the Model 2290 Electrovonfrey anesthesiometer (IITC Life Science, Woodland Hills, Calif.). Animals were placed in an elevated Plexiglass enclosure set on a mire mesh surface. After 15 minutes of accommodation, a von Frey hair was applied perpendicularly to the plantar surface of the ipsilateral hind paws of the animals with sufficient force, measured in grams, to elicit a crisp response of the paw. The response indicated a withdrawal from the painful stimulus and constituted the efficacy endpoint. The force (in grams) required to elicit a crisp withdrawal response was recorded before dosing as a baseline measurement, and at multiple time points post-dosing.
Three days prior to baseline measurement, animals were anaesthetized under isoflurane and the whole of the ipsilateral hind legs, including the upper sciatic notch thigh area, ankle and foot, was shaved. The animals were then randomly assigned to one of 4 different test groups including a vehicle control group, a 5% (w/v) Lidocaine (Xylocaine®), and 2 pharmaceutical compositions of the invention comprising COMPOUND A at 4% (w/w) containing either 5% or 10% Transcutol® P. After baseline measurement, 100 mg of the test composition was applied on the entire shaved area. The animals were then placed in plastic tubes for at least 15 minutes, to prevent early removal/ingestion of drug. Subsequently, animals were placed in the Plexiglas enclosure 15 minutes before von Frey measurement at the respective time points. Von Frey withdrawal thresholds were measured as the mean of several independent determinations made within 1-2 minutes of each other on the affected paw of each animal at 0.5, 1 and 2 hours post dosing.

Consider `O=C1N(Cc2ccc(C(F)(F)F)o2)c2ccccc2[C@]12COc1cc3c(cc12)OCO3` [COMPOUND A, (S)-1′-{[5-(trifluoromethyl)furan-2-yl]methyl}spiro[furo[2,3-f][1,3]benzodioxole-7,3′-indol]-2′(1′H)-one], for which the “plasma level in topical dosage group lower than in oral dosage group (fold)” value in data set [1] is listed as about 20 ×. Besides, the “paw withdrawal threshold, percent mean change from baseline (CFB)” value in data set [2] (4% (w/w) in 5% Transcutol P composition, 100 mg applied, 0.5 hours post-dosing) is reported as “+26.3%”; in data set [2] (4% (w/w) in 5% Transcutol P composition, 1 hour post-dosing), “+18.1%”; in data set [2] (4% (w/w) in 10% Transcutol P composition, 100 mg applied, 0.5 hours post-dosing), “+33.8%”; in data set [2] (4% (w/w) in 10% Transcutol P composition, 1 hour post-dosing), “+26.7%”. The “duration of analgesic effects post-dosing” value in data set [2] (4% (w/w) in 10% transcutol composition, from 0.5 hour) is “up to 2 hours”.
